According to paper PMC8584447, “Adhesive Antimicrobial Peptides Containing 3,4-Dihydroxy-L-Phenylalanine Residues for Direct One-Step Surface Coating” (International Journal of Molecular Sciences, 2021):
Ends that are not written are not given here.

Experiments:
[1] = test system: P. aeruginosa; test: Antibacterial activity of peptide-coated surfaces (ISO 22196, modified), P. aeruginosa; type: cell-based, Pseudomonas aeruginosa; details: NKC-DOPA5-coated PS, Ti and PDMS (1 cm × 1 cm), 10 μL of 10^6 cells/mL, 37 °C
Procedure: (§1) To coat the designed peptides on a surface, 200 μL of freshly prepared 200 μM peptide solution (10 mM Tris-HCl, pH 8.5) was added into a 24-well PS plate and incubated for 10 min at 37 °C. After coating, the plates were rinsed with deionized water and air-dried. The PS, Ti, and PDMS pieces (1 cm × 1 cm) were coated in the same manner. For the PD-mediated AMP coating, a layer of PD was first coated on a 24-well PS plate by dip coating, as previously described, with minor modifications. Each PS well was treated with 2 mg/mL dopamine solution (10 mM Tris-HCl, pH 8.5) and incubated for approximately 1 h at 37 °C. The PD-coated wells were washed twice with deionized water to remove excess dopamine. To attach the NKC peptide to a PD-coated 24-well PS plate, NKC peptide solution (200 μM) was dispensed into each well, and the plate was incubated at 37 °C for 24 h. The wells with the immobilized peptide were then washed twice with deionized water.
(§2) The bactericidal activities of the AMP-coated surfaces were evaluated following the International Organization for Standardization 22196 standard with slight modifications. Overnight bacterial suspensions were subcultured in fresh LB until the mid-log phase and diluted to 10^6 cells/mL with 500-fold diluted LB. […]

[2] = test system: HaCaT cells
Procedure: To evaluate the toxicity of the peptides coated on the substrates towards human skin, the mitochondrial dehydrogenase activity of HaCaT keratinocytes was measured in a modified 3-(4,5-dimethyl-2-thiazolyl)-2,5-diphenyl-2H-tetrazolium bromide (MTT) reduction assay. HaCaT cells were routinely cultured in Dulbecco’s modified Eagle’s medium (DMEM; Lonza, Basel, Switzerland) with 10% fetal bovine serum (Lonza) and 1% penicillin–streptomycin solution (Thermo Fisher Scientific) in humidified 5% CO2 at 37 °C. The cultured cells were washed twice with phosphate-buffered saline (PBS; pH 7.4) and detached by trypsinization. The harvested HaCaT cells were diluted to 5 × 10^4 cells/mL, seeded into 12-well culture plates, and incubated in a humidified incubator with 5% CO2. After incubation, the medium was changed to serum-free DMEM, and uncoated or AMP-coated pieces (PS/Ti/PDMS; 1 cm × 1 cm) were placed upside down on the HaCaT cells. After 24 h, the pieces were removed, and MTT solution in 1 mL of DMEM was added to each well. […] The plate was incubated overnight, and the absorbance was measured at 570 nm using a microplate reader (Tecan Infinite 200 Pro). […] Cell viability was expressed as the percentage of surviving cells on the coated substrates relative to those on the uncoated substrates.

[3] = test system: S. aureus; test: Bacterial adhesion / biofilm assay (live/dead staining, confocal microscopy), S. aureus; type: cell-based, Staphylococcus aureus; details: 10^7 cells/mL, 24 h, 37 °C, SYTO9/PI staining
Procedure: (§3) The viability of bacterial cells adhered to the substrate surface was evaluated using the Live/Dead BacLight Bacterial Viability Kit (Thermo Fisher Scientific) according to the manufacturer’s instructions. Briefly, 200 μL of bacterial suspensions adjusted to 10^7 cells/mL were incubated on uncoated or peptide-coated chambered cover glasses (Thermo Fisher Scientific) at 37 °C for 24 h. After 24 h, planktonic cells were removed, and the surfaces were washed with 0.85% (w/v) NaCl buffer. Cells attached to the surfaces were stained for 15 min in the dark with BacLight stock solution containing two fluorescent nucleic acid stains, SYTO9 and propidium iodide (PI). After staining, the surfaces were washed with 0.85% NaCl solution, and the stained cells were photographed using confocal laser-scanning microscopy (LSM 5 LIVE DuoScan, Carl Zeiss, Jena, Germany) using a 63× objective. The excitation wavelengths were 488 and 561 nm for SYTO9 and PI, respectively.

[4] = test system: P. aeruginosa; test: Rat subcutaneous implant infection model; type: in vivo, Sprague–Dawley rats
Procedure: In vivo antibacterial activity was evaluated using specific pathogen-free Sprague–Dawley male rats (7 weeks old, weighing 200−220 g). All animal experiments were approved by the Animal Ethics Committee of KNOTUS, Incheon, Korea (approval no. 18-KE-383) and performed following the guidelines for the care and use of laboratory animals of KNOTUS. All rats were housed in individually ventilated cages and acclimated for 7 days before surgery. For implantation, the rats were anesthetized by intramuscular injection of Zoletil® (30 mg/kg; Virbac, Carros, France), and the dorsum was shaved and disinfected with 70% isopropyl alcohol. Approximately 1 cm wide incisions were made parallel to the spine and extended to the subdermal fascia. For the control group, uncoated Ti screws or PDMS slides were implanted into the left flank, whereas AMP-coated implants were inserted into the right flank. The wounds were sutured, and the implant site was marked on the skin. Setting the skin mark as a guide, 100 μL of a p. aeruginosa inoculum containing 2.5 × 10^8 cells/mL was injected subcutaneously. The rats were euthanized by CO2 asphyxia at 5 days after the bacterial challenge. The implants were removed using sterile tools and placed in sterile tubes containing 1 mL of PBS. For the detachment of bacteria from the implant materials, the tubes were sonicated for 15 min, and 10-fold serial dilutions of the bacterial solution were plated on LB agar for CFU determination. The tissues surrounding the implants were carefully removed, separately immersed in 1 mL of PBS, and homogenized. Bacteria in the tissues were quantified by serial dilution. For histological examination, the tissues surrounding the implants were formaldehyde-fixed, paraffin-embedded, and then stained with hematoxylin and eosin [26].

[5] = test system: E. coli; test: Stability assessment of surface-coated peptide (antimicrobial activity after storage); type: cell-based, Escherichia coli; details: for antimicrobial activity after storage: coated PS stored at 25 °C, (Nc−N)/Nc×100, mean ± SD
Procedure: (§4) The bactericidal activities of the AMP-coated surfaces were evaluated following the International Organization for Standardization 22196 standard with slight modifications. Overnight bacterial suspensions were subcultured in fresh LB until the mid-log phase and diluted to 10^6 cells/mL with 500-fold diluted LB. The AMP-coated and uncoated substrates (1 cm × 1 cm) were placed in 24-well plates, and 10 μL of the bacterial suspension was distributed over the substrate surface. The substrates were covered with a piece of polyethylene film (1 cm × 1 cm) and incubated for 2 h (37 °C, relative humidity: >90%). Subsequently, SCDLP broth (990 μL) was added, and viable cells were retrieved and serially diluted. Aliquots (100 μL) of the bacterial suspension were withdrawn and plated for colony counting.
To evaluate the stability of the surface-coated peptides, antimicrobial activity was determined as described above after incubating the AMP-coated PS plates for 1, 7, 14, 21, 28, 56, and 84 days at 4 °C and 25 °C and with the formula below: Antimicrobial activity (%)=Nc−N/Nc×100 where Nc and N represent the number of colonies after incubation on the control and AMP-coated substrates, respectively.

[6] = test system: E. coli; test: Antibacterial activity of peptide-coated surfaces (ISO 22196, modified), E. coli; type: cell-based, Escherichia coli
Procedure: as §1, §4

[7] = test system: S. aureus; test: Antibacterial activity of peptide-coated surfaces (ISO 22196, modified), S. aureus; type: cell-based, Staphylococcus aureus; details: NKC-DOPA5-coated PS, Ti and PDMS (1 cm × 1 cm), 10 μL of 10^6 cells/mL, 37 °C
Procedure: as §1, §2

[8] = test system: P. aeruginosa; test: Bacterial adhesion / biofilm assay (live/dead staining, confocal microscopy), P. aeruginosa; type: cell-based, Pseudomonas aeruginosa; details: 10^7 cells/mL, 24 h, 37 °C, SYTO9/PI staining
Procedure: as §3

[9] = test system: E. coli; test: Bacterial adhesion / biofilm assay (live/dead staining, confocal microscopy), E. coli; type: cell-based, Escherichia coli; details: 10^7 cells/mL, 24 h, 37 °C, SYTO9/PI staining
Procedure: as §3

[10] = test system: E. coli ATCC 27325; type: cell-based, Escherichia coli; details: ATCC 27325, 18 h
Procedure: The MICs of the designed peptides were measured against the gram-negative bacterium E. coli ATCC 27325 according to the general guidelines of the Clinical and Laboratory Standards Institute, with some modifications based on a study of cationic AMPs. Briefly, a single bacterial colony was cultured in Mueller−Hinton broth (MHB; Sigma–Aldrich) until the mid-log phase (optical density of 0.4–0.6 at 600 nm). The bacterial suspension was diluted with fresh MHB to a concentration of 10^6 colony-forming units (CFU)/mL. Next, two-fold serial dilutions (128 to 1 μM) of the peptides were prepared in MHB and mixed (1:1) with the diluted bacterial culture, resulting in a final peptide concentration ranging from 64 to 0.5 μM and final bacteria concentration of 5 × 10^5 cells/mL. The mixtures were placed into 96-well polypropylene microtiter plates (Corning), with sterile MHB used as a negative control and MHB inoculated with bacterial cells used as growth control. The plates were incubated for 18 h at 37 °C with shaking at 200 rpm. The MIC values were determined as the lowest concentrations at which no bacterial growth was recorded at 600 nm using a microplate reader (Infinite 200 Pro; Tecan, Männedorf, Switzerland).

[11] = coated PDMS implants, 5 days post-inoculation
[12] = peptide-coated 24-well PS, 10^6 cells/mL E. coli, 2 h, colony counting

Substance: APKAMKLLKKLLKLQKKGIGGGGSGGGGSYYYYY [NKC-DOPA5, NKC with glycine–serine linker and 5 DOPA moieties at the C-terminus]
- number of viable bacterial cells after 2 h [1]: zero
- cell viability [2]: > 90%
- biofilm formation on coated surface [3]: remarkably inhibited biofilm formation
- decrease in number of bacteria recovered from surrounding tissues vs pristine ([4]; PDMS implants, 5 days post-inoculation): approximately 3.8 log CFU/g
- difference in number of bacteria in surrounding tissues, pristine vs coated ([4]; Ti implants, 5 days post-inoculation): 3 log CFU/g
- implants from which microorganisms were absent [4, 11]: three of the five implants
- median number of bacteria recovered from surrounding tissues [4, 11]: 0.9 log CFU/g
- average bacterial count per implant ([4]; coated PDMS implants, five implants, 5 days post-inoculation): 0.92 log CFU/mL per implant
- microbial loads of the two colonised implants ([4]; coated PDMS, the other two of five implants, 5 days post-inoculation): 2.0−2.6 log CFU/mL
- number of bacteria from tissues surrounding the implants ([4]; coated Ti implants, 5 days post-inoculation): 2.7 log CFU/g
- microorganisms on implants ([4]; coated Ti screw, five implants, 5 days post-inoculation of P. aeruginosa): no microorganisms were observed
- inflammation of tissues around the implants ([4]; coated Ti screws and PDMS, 5 days post-inoculation, gross observation): without apparent inflammation
- change in antimicrobial activity during storage ([5]; coated PS plate stored at 4 °C for 84 days): no change
- antimicrobial activity after storage ([5]; 7 days): 99.75 ± 0.16%
- antimicrobial activity after storage ([5]; 84 days): 99.17 ± 3.25%
- number of viable bacterial cells after 2 h ([6]; NKC-DOPA5-coated PS, Ti and PDMS (1 cm × 1 cm), 10 μL of 10^6 cells/mL, 37 °C): zero
- bacterial growth on coated surface (in words) [6, 12]: No bacterial growth was observed
- number of viable bacterial cells after 2 h [7]: zero
- biofilm formation on coated surface [8]: remarkably inhibited biofilm formation
- biofilm formation on coated surface [9]: remarkably inhibited biofilm formation

Substance: APKAMKLLKKLLKLQKKGIGGGGSGGGGSY [NKC-DOPA1, NKC with glycine–serine linker and 1 DOPA moiety at the C-terminus]
- bacterial growth on coated surface (in words) [6, 12]: hardly inhibited bacterial growth

Substance: APKAMKLLKKLLKLQKKGIGGGGSGGGGSYYY [NKC-DOPA3, NKC with glycine–serine linker and 3 DOPA moieties at the C-terminus]
- log reduction in the cell count [6, 12]: 5.7 log

Substance: APKAMKLLKKLLKLQKKGI-NH2 (C-terminus assumed) [NKC, reference compound]
- reduction of the cell count ([6]; NKC attached via polydopamine (PD) to PS plate, E. coli, 2 h): approximately 4.2 log
- MIC [10]: 1 µM

Substance: APKAMKLLKKLLKLQKKGIGGGGSGGGGSYYYYYYY [NKC-DOPA7, NKC with glycine–serine linker and 7 DOPA moieties at the C-terminus]
- bacterial growth on coated surface (in words) [6, 12]: No bacterial growth was observed
